Measured values published in patent US20240116985A1, “STAPLED PEPTIDES AND METHODS THEREOF” (priority 2020, published 2024).
Converted amounts (≈) assume the structure as drawn. Read-outs that look alike come from different tables or passages of the source.

Assays:
[1] = CHI Log D procedure; format: physicochemical; conditions: for CHI Log D: pH 7.4; for chromatographic logD: pH 7.4, CHI Log D
[2] = Solubility in PBS; format: physicochemical
Method in brief: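 PBS sample ultracentrifuged; supernatant run on HPLC vs. 50 μM peptide in DMSO standard. Solubility = (PBS peak area / DMSO peak area) × 50 uM.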

[3] = biological target: T1, full-length beta-Catenin (Uniprot ID P35222) (Homo sapiens, UniProt P35222); test: Fluorescence polarization IC50 (beta-catenin / 5FAM-TCF4 10-53 competition); format: binding
T1 construct: 10 nM full-length beta-Catenin (Uniprot ID P35222)
T1 sequence (P35222 1-781): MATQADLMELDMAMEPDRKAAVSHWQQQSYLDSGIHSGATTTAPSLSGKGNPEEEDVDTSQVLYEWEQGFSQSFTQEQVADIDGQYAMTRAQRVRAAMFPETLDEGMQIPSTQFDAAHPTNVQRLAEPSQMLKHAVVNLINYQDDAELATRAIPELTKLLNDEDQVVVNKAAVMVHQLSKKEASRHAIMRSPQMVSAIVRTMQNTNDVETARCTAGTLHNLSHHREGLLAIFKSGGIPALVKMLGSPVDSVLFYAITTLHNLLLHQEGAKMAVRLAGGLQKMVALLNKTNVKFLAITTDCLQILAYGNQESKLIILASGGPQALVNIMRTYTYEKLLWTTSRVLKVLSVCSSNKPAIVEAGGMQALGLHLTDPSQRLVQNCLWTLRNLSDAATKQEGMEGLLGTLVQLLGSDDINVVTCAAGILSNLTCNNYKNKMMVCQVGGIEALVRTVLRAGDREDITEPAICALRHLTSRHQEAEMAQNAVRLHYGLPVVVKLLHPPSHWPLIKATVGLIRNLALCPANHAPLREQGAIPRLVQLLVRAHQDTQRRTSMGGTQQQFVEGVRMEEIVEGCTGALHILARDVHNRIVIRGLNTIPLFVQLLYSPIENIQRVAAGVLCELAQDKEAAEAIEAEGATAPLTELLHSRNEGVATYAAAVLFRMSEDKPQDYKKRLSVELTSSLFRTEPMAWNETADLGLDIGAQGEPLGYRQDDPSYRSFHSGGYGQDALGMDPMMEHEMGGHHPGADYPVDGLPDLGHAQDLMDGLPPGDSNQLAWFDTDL

[4] = fluorescence polarization, beta-catenin, read-out: FP EC50

Row | SMILES | CHI Log D [1] | Solubility [2] | IC50 [3, 4] | IC50 ([3]; read-out: beta-Catenin FP IC50) | chromatographic logD [1]
1 | CC(=O)N1CCC[C@]12CC=CCCCC1(CCCC=CCCCOC(=O)N3CC[C@@](C(=O)N[C@@H](Cc4ccsc4)C(=O)N[C@@H](Cc4csc5ccccc45)C(=O)N[C@@H](CCC(N)=O)C(N)=O)(C3)NC(=O)[C@H](CC(N)=O)NC(=O)[C@H](Cc3ccccc3)NC(=O)[C@H](C)NC(=O)[C@H](C)NC(=O)[C@H](Cc3cccc(C(=O)O)c3)NC(=O)[C@H](CC(=O)O)NC1=O)NC(=O)[C@H](CC(C)(C)C)NC(=O)[C@H](CC(=O)O)NC2=O (stereo partly drawn) [I-976, Ac-PL3-Asp-Npg-B5-Asp-3COOHF-Ala-Ala-Phe-Asn-PyrS2-3Thi-BztA-Gln-NH2] | 1.78 | 50 µM (≈ 99.7 µg/mL) | 0.399 µM | 0.399 µM | –
2 | CC(=O)N1CCC[C@]12CC=CCCCC1(CCCC=CCCCOC(=O)N3CC[C@@](C(=O)N[C@@H](Cc4ccsc4)C(=O)N[C@@H](Cc4csc5ccccc45)C(=O)N[C@@H](CCC(N)=O)C(N)=O)(C3)NC(=O)[C@H](CC(N)=O)NC(=O)[C@H](Cc3ccccc3)NC(=O)[C@H](C)NC(=O)[C@H](C)NC(=O)[C@H](Cc3cccc(C(=O)O)c3)NC(=O)[C@H](CC(=O)O)NC1=O)NC(=O)[C@H](CC(C)(C)C)NC(=O)[C@H](CC(=O)O)NC2=O (stereo partly drawn) [I-977, Ac-PL3-Asp-Npg-B5-Asp-3COOHF-Ala-Ala-Phe-Asn-PyrS2-3Thi-BztA-Gln-NH2] | 1.87 | 46 µM (≈ 91.7 µg/mL) | 0.367 µM | 0.875 µM | –
3 | CC(=O)N1CCC[C@]12CC=CCCCC1(CCCC=CCCCOC(=O)N3CC[C@@](C(=O)N[C@@H](Cc4ccsc4)C(=O)N[C@@H](Cc4csc5ccccc45)C(=O)N[C@@H](CCC(N)=O)C(N)=O)(C3)NC(=O)[C@H]([C@@H](C)O)NC(=O)[C@H](Cc3ccccc3)NC(=O)[C@H](C)NC(=O)[C@H](C)NC(=O)[C@H](Cc3cccc(C(=O)O)c3)NC(=O)[C@H](CC(=O)O)NC1=O)NC(=O)[C@H](CC(C)(C)C)NC(=O)[C@H](CC(=O)O)NC2=O (stereo partly drawn) [I-980, Ac-PL3-Asp-Npg-B5-Asp-3COOHF-Ala-Ala-Phe-Thr-PyrS2-3Thi-BztA-Gln-NH2] | 1.695 | 19 µM (≈ 37.6 µg/mL) | 0.221 µM | 0.221 µM | –
4 | CC(=O)N1CCC[C@]12CC=CCCCC1(CCCC=CCCCOC(=O)N3CC[C@@](C(=O)N[C@@H](Cc4ccsc4)C(=O)N[C@@H](Cc4csc5ccccc45)C(=O)N[C@@H](CCC(N)=O)C(N)=O)(C3)NC(=O)[C@H]([C@@H](C)O)NC(=O)[C@H](Cc3ccccc3)NC(=O)[C@H](C)NC(=O)[C@H](C)NC(=O)[C@H](Cc3cccc(C(=O)O)c3)NC(=O)[C@H](CC(=O)O)NC1=O)NC(=O)[C@H](CC(C)(C)C)NC(=O)[C@H](CC(=O)O)NC2=O (stereo partly drawn) [I-981, Ac-PL3-Asp-Npg-B5-Asp-3COOHF-Ala-Ala-Phe-Thr-PyrS2-3Thi-BztA-Gln-NH2] | 1.761 | 45 µM (≈ 89.2 µg/mL) | 0.199 µM | 0.374 µM | –
5 | CC(=O)N1CCC[C@]12CC=CCCCC1(CCCC=CCCCOC(=O)N3CC[C@@](C(=O)N[C@@H](Cc4ccsc4)C(=O)N[C@@H](Cc4csc5ccccc45)C(=O)N[C@@H](CO)C(N)=O)(C3)NC(=O)[C@H](Cc3ccccc3)NC(=O)[C@H](Cc3ccccc3)NC(=O)[C@H](C)NC(=O)[C@H](C)NC(=O)[C@H](Cc3cccc(C(=O)O)c3)NC(=O)[C@H](CC(=O)O)NC1=O)NC(=O)[C@H](CC(C)(C)C)NC(=O)[C@H](CC(=O)O)NC2=O (stereo partly drawn) [I-982, Ac-PL3-Asp-Npg-B5-Asp-3COOHF-Ala-Ala-Phe-Phe-PyrS2-3Thi-BztA-Ser-NH2] | 1.853 | 16 µM (≈ 31.8 µg/mL) | 0.19 µM | 0.19 µM | –
6 | CC(=O)N1CCC[C@]12CC=CCCCC1(CCCC=CCCCOC(=O)N3CC[C@@](C(=O)N[C@@H](Cc4ccsc4)C(=O)N[C@@H](Cc4csc5ccccc45)C(=O)N[C@@H](CO)C(N)=O)(C3)NC(=O)[C@H](CO)NC(=O)[C@H](Cc3ccccc3)NC(=O)[C@H](C)NC(=O)[C@H](C)NC(=O)[C@H](Cc3cccc(C(=O)O)c3)NC(=O)[C@H](CC(=O)O)NC1=O)NC(=O)[C@H](CC(C)(C)C)NC(=O)[C@H](CC(=O)O)NC2=O (stereo partly drawn) [I-985, Ac-PL3-Asp-Npg-B5-Asp-3COOHF-Ala-Ala-Phe-Ser-PyrS2-3Thi-BztA-Ser-NH2] | 1.87 | 47 µM (≈ 90.5 µg/mL) | 0.301 µM | 0.431 µM | –

Stronger by IC50 ([3]; read-out: beta-Catenin FP IC50), values ahead:

Row | CHI Log D [1] | Solubility [2] | IC50 [3, 4] | IC50 ([3]; read-out: beta-Catenin FP IC50) | chromatographic logD [1] | SMILES
7 | 1.919 | 10 µM (≈ 19.9 µg/mL) | 0.118 µM | 0.118 µM | – | CC(=O)N1CCC[C@]12CC=CCCCC1(CCCC=CCCCOC(=O)N3CC[C@@](C(=O)N[C@@H](Cc4ccsc4)C(=O)N[C@@H](Cc4csc5ccccc45)C(=O)N[C@@H](CO)C(N)=O)(C3)NC(=O)[C@H](Cc3ccccc3)NC(=O)[C@H](Cc3ccccc3)NC(=O)[C@H](C)NC(=O)[C@H](C)NC(=O)[C@H](Cc3cccc(C(=O)O)c3)NC(=O)[C@H](CC(=O)O)NC1=O)NC(=O)[C@H](CC(C)(C)C)NC(=O)[C@H](CC(=O)O)NC2=O (stereo partly drawn) [I-983, Ac-PL3-Asp-Npg-B5-Asp-3COOHF-Ala-Ala-Phe-Phe-PyrS2-3Thi-BztA-Ser-NH2]
8 | 1.8 | 45 µM (≈ 86.7 µg/mL) | 0.179 µM | 0.179 µM | – | CC(=O)N1CCC[C@]12CC=CCCCC1(CCCC=CCCCOC(=O)N3CC[C@@](C(=O)N[C@@H](Cc4ccsc4)C(=O)N[C@@H](Cc4csc5ccccc45)C(=O)N[C@@H](CO)C(N)=O)(C3)NC(=O)[C@H](CO)NC(=O)[C@H](Cc3ccccc3)NC(=O)[C@H](C)NC(=O)[C@H](C)NC(=O)[C@H](Cc3cccc(C(=O)O)c3)NC(=O)[C@H](CC(=O)O)NC1=O)NC(=O)[C@H](CC(C)(C)C)NC(=O)[C@H](CC(=O)O)NC2=O (stereo partly drawn) [I-984, Ac-PL3-Asp-Npg-B5-Asp-3COOHF-Ala-Ala-Phe-Ser-PyrS2-3Thi-BztA-Ser-NH2]
9 | 1.855 | 27 µM (≈ 52.7 µg/mL) | 0.136 µM | 0.136 µM | – | CC(=O)N1CCC[C@]12CC=CCCCC1(CCCC=CCCCOC(=O)N3CC[C@@](C(=O)N[C@@H](Cc4ccsc4)C(=O)N[C@@H](Cc4csc5ccccc45)C(=O)N[C@@H](CO)C(N)=O)(C3)NC(=O)[C@H](CC(C)C)NC(=O)[C@H](Cc3ccccc3)NC(=O)[C@H](C)NC(=O)[C@H](C)NC(=O)[C@H](Cc3cccc(C(=O)O)c3)NC(=O)[C@H](CC(=O)O)NC1=O)NC(=O)[C@H](CC(C)(C)C)NC(=O)[C@H](CC(=O)O)NC2=O (stereo partly drawn) [I-986, Ac-PL3-Asp-Npg-B5-Asp-3COOHF-Ala-Ala-Phe-Leu-PyrS2-3Thi-BztA-Ser-NH2]
10 | 2.115 | 10 µM (≈ 19.5 µg/mL) | 0.112 µM | 0.112 µM | – | CC(=O)N1CCC[C@]12CC=CCCCC1(CCCC=CCCCOC(=O)N3CC[C@@](C(=O)N[C@@H](Cc4ccsc4)C(=O)N[C@@H](Cc4csc5ccccc45)C(=O)N[C@@H](CO)C(N)=O)(C3)NC(=O)[C@H](CC(C)C)NC(=O)[C@H](Cc3ccccc3)NC(=O)[C@H](C)NC(=O)[C@H](C)NC(=O)[C@H](Cc3cccc(C(=O)O)c3)NC(=O)[C@H](CC(=O)O)NC1=O)NC(=O)[C@H](CC(C)(C)C)NC(=O)[C@H](CC(=O)O)NC2=O (stereo partly drawn) [I-987, Ac-PL3-Asp-Npg-B5-Asp-3COOHF-Ala-Ala-Phe-Leu-PyrS2-3Thi-BztA-Ser-NH2]
11 | – | 10 µM (≈ 20.7 µg/mL) | – | 0.087 µM | 2.1 | CC(=O)N1CCC[C@]12CC=CCCCC1(CCCC=CCCCOC(=O)N3CC[C@@](C(=O)N[C@@H](Cc4ccc(O)cc4)C(=O)N[C@@H](Cc4csc5ccccc45)C(=O)N[C@@H](CCC(N)=O)C(N)=O)(C3)NC(=O)[C@H](Cc3ccccc3)NC(=O)[C@H](Cc3ccccc3)NC(=O)[C@H](C)NC(=O)[C@H](C)NC(=O)[C@H](CN(CC(=O)O)CC(F)(F)F)NC(=O)[C@H](CC(=O)O)NC1=O)NC(=O)[C@H](CC(C)(C)C)NC(=O)[C@H](CC(=O)O)NC2=O (stereo partly drawn) [I-989, Ac-PL3-Asp-Npg-B5-Asp-TfeGA-Ala-Ala-Phe-Phe-PyrS2-Tyr-BztA-Gln-NH2]
12 | – | 10 µM (≈ 20.6 µg/mL) | – | 0.051 µM | 2.7 | CC(=O)N1CCC[C@]12CC=CCCCC1(CCCC=CCCCOC(=O)N3CC[C@@](C(=O)N[C@@H](Cc4ccccc4Cl)C(=O)N[C@@H](Cc4csc5ccccc45)C(=O)N[C@H](C(N)=O)[C@@H](C)O)(C3)NC(=O)[C@H](Cc3ccccc3)NC(=O)[C@H](Cc3ccccc3)NC(=O)[C@H](C)NC(=O)[C@H](C)NC(=O)[C@H](CN(CC(=O)O)CC(F)(F)F)NC(=O)[C@H](CC(=O)O)NC1=O)NC(=O)[C@H](CC(C)(C)C)NC(=O)[C@H](CC(=O)O)NC2=O (stereo partly drawn) [I-991, Ac-PL3-Asp-Npg-B5-Asp-TfeGA-Ala-Ala-Phe-Phe-PyrS2-2C1F-BztA-Thr-NH2]
